Experimental data reported in ChEMBL document CHEMBL5214932, “A closer look at N2,6-substituted 1,3,5-triazine-2,4-diamines: Advances in synthesis and biological activities” (Eur J Med Chem, 2022).

Experiments:
[1] = Cytotoxicity against human MT2 cells assessed as cell growth inhibition by MTT assay; format: toxicity, cell-based
[2] = system: Human immunodeficiency virus 1; test: Antiviral activity against wild type HIV1 IIIB assessed as viral growth inhibition measured after 5 days by MTT assay; format: functional, organism-based; conditions: Human immunodeficiency virus 1, IIIB, 120 h
MDA-MB-231 = test: Antiproliferative activity against human MDA-MB-231 cells assessed as cell growth inhibition measured after 72 hrs by MTT assay; format: functional, cell-based; conditions: MDA-MB-231, 72 h
DU-145 = test: Antiproliferative activity against human DU-145 cells assessed as cell growth inhibition measured after 72 hrs by MTT assay; format: functional, cell-based; conditions: DU-145, 72 h
SK-BR-3 = test: Antiproliferative activity against human SK-BR-3 cells assessed as cell growth inhibition measured after 72 hrs by MTT assay; format: functional, cell-based; conditions: SK-BR-3, 72 h
MCF7 = test: Antiproliferative activity against human MCF7 cells assessed as cell growth inhibition measured after 72 hrs by MTT assay; format: functional, cell-based; conditions: MCF7, 72 h
MCF-10A = test: Antiproliferative activity against human MCF-10A cells assessed as cell growth inhibition measured after 72 hrs by MTT assay; format: functional, cell-based

Compound | IC50 [1] | IC50 [2] | IC50 (MDA-MB-231) | IC50 (DU-145) | IC50 (SK-BR-3) | IC50 (MCF7) | IC50 (MCF-10A)
N#C/C=C/c1cccc(Oc2cc(Nc3nc(N)nc(C4CC4)n3)ccc2C#N)c1 | 1700 nM | 43 nM | – | – | – | – | –
CN(C)c1ccc(-c2nc(N)nc(Nc3ccccc3F)n2)cc1 | – | – | 60 nM | 670 nM | 290 nM | > 20000 nM | > 25000 nM
